# Data reported in patent publication US20120258960A1, “NOVEL MULTIFUNCTIONAL PEPTIDASE INHIBITORS, ESPECIALLY FOR MEDICAL USE” (IMTM GMBH, priority 2009, published 2012).
# pIC50: −log10 of the molar value.
# Assays:
# [1] = target: purified, recombinant human DPIV (Homo sapiens, UniProt P27487); experiment: Measurement of DPIV activity (fluorogenic substrate (Ala-Pro)2-R110)
# Description: The enzymatic activity of DPIV was assessed by the hydrolysis of the fluorogenic substrate bis-(L-alanyl-prolyl)-Rhodamin-110 (bis-trifluoracetate, abbreviation (Ala-Pro)2-R110). The final substrate concentration was 0.5 μM.
# The assay was performed in white microtitre plates for fluorescence measurements. The test items, substrate and enzyme were diluted in assay buffer. […] As controls, the DPIV activity in the absence of test items as well as the spontaneous hydrolysis of the substrate was determined.
# [2] = target: human recombinant Aminopeptidase N (Homo sapiens, UniProt P15144); experiment: Measurement of APN activity (fluorogenic substrate (Ala)2-R110); assay type: biochemical; details: human recombinant APN approx. 5 nM, substrate 0.5 μM, pH 7.5
# Description: Inhibitory effects of test items on the enzymatic activity of human recombinant Aminopeptidase N (final concentration approx. 5 nM) were assessed by using the fluorogenic substrate bis-(L-alanyl)-Rhodamine-110 (bis-trifluoracetate, abbreviation (Ala)2-R110) at a final concentration of 0.5 μM. The assay was performed in 0.05 M TRIS/HCl buffer pH 7.5, supplemented with 0.05% Triton (v/v), 0.05% BSA (w/v), 2 mM MgCl2.
# The assay was performed in white microtitre plates for fluorescence measurements.
# As controls, (Ala)2-R110 hydrolyzing activity in the absence of any test item as well as the spontaneous substrate hydrolysis was determined.
# The release of the fluorescent hydrolysis product Rhodamine 110 was measured at an excitation wavelength of 485 nm and an emission wavelength of 530 nm by using a microtitre fluorescence reader immediately after substrate addition as well as after 30, 60 and 120 min.
# Sequence of purified, recombinant human DPIV (P27487 whole entry): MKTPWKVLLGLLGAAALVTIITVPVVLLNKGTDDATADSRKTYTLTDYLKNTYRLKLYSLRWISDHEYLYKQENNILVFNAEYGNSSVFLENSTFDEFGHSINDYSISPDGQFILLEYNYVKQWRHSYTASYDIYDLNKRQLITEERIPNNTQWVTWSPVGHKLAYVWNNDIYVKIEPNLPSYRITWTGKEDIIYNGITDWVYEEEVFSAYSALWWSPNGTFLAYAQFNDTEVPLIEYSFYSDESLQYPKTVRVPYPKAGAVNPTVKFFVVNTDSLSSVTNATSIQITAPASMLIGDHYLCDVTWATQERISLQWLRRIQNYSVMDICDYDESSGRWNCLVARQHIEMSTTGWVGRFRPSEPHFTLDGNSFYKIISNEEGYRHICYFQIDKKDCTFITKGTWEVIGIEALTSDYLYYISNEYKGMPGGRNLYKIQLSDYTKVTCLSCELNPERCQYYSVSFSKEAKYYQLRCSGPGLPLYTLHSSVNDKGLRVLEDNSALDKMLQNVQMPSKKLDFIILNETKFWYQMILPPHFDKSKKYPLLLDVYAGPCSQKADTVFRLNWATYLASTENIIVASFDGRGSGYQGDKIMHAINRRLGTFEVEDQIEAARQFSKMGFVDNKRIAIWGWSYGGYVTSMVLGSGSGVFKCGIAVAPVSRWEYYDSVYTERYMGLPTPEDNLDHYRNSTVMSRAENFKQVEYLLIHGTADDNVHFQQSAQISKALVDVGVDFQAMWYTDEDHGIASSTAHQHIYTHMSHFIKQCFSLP
# Sequence of human recombinant Aminopeptidase N (P15144 whole entry): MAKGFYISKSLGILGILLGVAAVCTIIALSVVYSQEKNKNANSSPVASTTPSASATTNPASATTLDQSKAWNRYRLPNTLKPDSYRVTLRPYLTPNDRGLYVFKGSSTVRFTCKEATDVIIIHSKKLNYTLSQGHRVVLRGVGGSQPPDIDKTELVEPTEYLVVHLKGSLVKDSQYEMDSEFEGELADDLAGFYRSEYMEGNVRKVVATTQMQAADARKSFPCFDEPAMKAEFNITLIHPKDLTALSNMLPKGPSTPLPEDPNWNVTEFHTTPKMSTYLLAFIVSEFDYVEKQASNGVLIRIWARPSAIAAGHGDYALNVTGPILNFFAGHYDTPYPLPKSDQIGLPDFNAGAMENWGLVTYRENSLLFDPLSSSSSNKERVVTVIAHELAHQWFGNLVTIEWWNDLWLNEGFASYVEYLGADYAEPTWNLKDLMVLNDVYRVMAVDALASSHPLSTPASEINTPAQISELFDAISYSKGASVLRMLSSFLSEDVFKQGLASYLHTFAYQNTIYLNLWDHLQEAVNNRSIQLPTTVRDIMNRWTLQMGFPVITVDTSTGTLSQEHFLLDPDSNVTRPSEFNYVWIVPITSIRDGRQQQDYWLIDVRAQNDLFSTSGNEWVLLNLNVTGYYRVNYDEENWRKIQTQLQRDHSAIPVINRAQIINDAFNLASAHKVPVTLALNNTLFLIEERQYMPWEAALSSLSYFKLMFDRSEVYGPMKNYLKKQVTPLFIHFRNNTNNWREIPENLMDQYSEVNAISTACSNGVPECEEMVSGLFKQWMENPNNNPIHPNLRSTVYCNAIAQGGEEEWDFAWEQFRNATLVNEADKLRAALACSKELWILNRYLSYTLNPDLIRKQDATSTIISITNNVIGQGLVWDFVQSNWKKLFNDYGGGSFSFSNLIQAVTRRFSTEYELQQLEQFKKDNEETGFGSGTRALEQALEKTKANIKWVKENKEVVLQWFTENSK
Compound,pIC50 [1],IC50 [2] [µM]
CCCCCCCCCCCCCCCCOC(C(=O)NCC(C)(C)CNC(=O)CC(N)Cc1cc(F)ccc1F)C(N)Cc1ccccc1 (stereo not shown),4.60,> 50
CCCCCCCCOC(C(=O)NCC(C)(C)CNC(=O)CC(N)Cc1cc(F)ccc1F)C(N)Cc1ccccc1 (stereo not shown),4.85,> 50
NC(CC(=O)NCCNC(=O)C(O)C(N)Cc1ccccc1)Cc1ccc2ccccc2c1 (stereo not shown) [drawing 13],4.55,1.5
NC(CC(=O)NCCNC(=O)C(O)C(N)Cc1ccccc1)Cc1ccccc1 (stereo not shown) [drawing 14],6.10,2.9
NC(CC(=O)NCCNC(=O)C(O)C(N)Cc1ccccc1)Cc1cc(F)ccc1F (stereo not shown) [drawing 15],6.80,5.6
NC(CC(=O)N1CCN(C(=O)CC(O)C(N)Cc2ccccc2)CC1)Cc1ccccc1 (stereo not shown) [drawing 16],6.05,> 50
NC(CC(=O)N1CCN(C(=O)C(O)C(N)Cc2ccccc2)CC1)Cc1ccccc1 (stereo not shown) [drawing 17],6.10,27
NC(CC(=O)NCCNC(=O)CC(O)C(N)Cc1ccccc1)Cc1ccccc1 (stereo not shown) [drawing 18],6.00,> 50
C[C@@H]1CN(C(=O)CC(O)C(N)Cc2ccccc2)C[C@H](C)N1C(=O)CC(N)Cc1ccccc1 (stereo partly shown) [drawing 19],6.55,22
CC(C)(NC(=O)CC(N)Cc1ccccc1)C(C)(C)NC(=O)C(O)C(N)Cc1ccccc1 (stereo not shown) [drawing 20],4.86,16.7
CC(C)(CNC(=O)CC(N)Cc1ccccc1)CNC(=O)C(O)C(N)Cc1ccccc1 (stereo not shown) [drawing 21],5.70,0.18
CCC(CC)(CNC(=O)CC(N)Cc1ccccc1)CNC(=O)C(O)C(N)Cc1ccccc1 (stereo not shown) [drawing 22],5.59,2.8
NC(CC(=O)NCCCCNC(=O)C(O)C(N)Cc1ccccc1)Cc1ccccc1 (stereo not shown) [drawing 23],5.57,0.18
CC(C)(CNC(=O)CC(N)Cc1ccccc1)CNC(=O)CC(O)C(N)Cc1ccccc1 (stereo not shown) [drawing 24],5.66,> 25
NC(CC(=O)NCCCCNC(=O)C(O)C(N)Cc1ccccc1)Cc1cc(F)ccc1F (stereo not shown) [drawing 25],7.10,0.14
CC(C)(CNC(=O)CC(N)Cc1cc(F)ccc1F)CNC(=O)C(O)C(N)Cc1ccccc1 (stereo not shown) [drawing 26],7.00,0.06
NC(CC(=O)NCCCCCNC(=O)C(O)C(N)Cc1ccccc1)Cc1ccccc1 (stereo not shown) [drawing 27],5.57,0.12
NC(CC(=O)NCCCCCCNC(=O)C(O)C(N)Cc1ccccc1)Cc1ccccc1 (stereo not shown) [drawing 28],5.92,0.41
NC(CC(=O)NCC1(CNC(=O)C(O)C(N)Cc2ccccc2)CCC1)Cc1ccccc1 (stereo not shown) [drawing 29],5.78,0.191
CC(C)(CNC(=O)CC(N)C(=O)N1CCSC1)CNC(=O)C(O)C(N)Cc1ccccc1 (stereo not shown) [drawing 30],5.67,2
NC(CC(=O)NCCCNC(=O)C(O)C(N)Cc1ccccc1)Cc1cc(F)ccc1F (stereo not shown) [drawing 31],6.30,0.02
CN(CCCN(C)C(=O)C(O)C(N)Cc1ccccc1)C(=O)CC(N)Cc1cc(F)ccc1F (stereo not shown) [drawing 32],6.75,8.5
CCCCCCCC(=O)NC(CC(=O)NCC(C)(C)CNC(=O)C(O)C(Cc1ccccc1)NC(=O)CCCCCCC)Cc1cc(F)ccc1F (stereo not shown) [drawing 33],< 4.30,> 50
CC(C)(CNC(=O)CC(CN)Cc1ccccc1)CNC(=O)C(O)C(N)Cc1ccccc1 (stereo not shown) [drawing 34],< 4.30,0.15

Compound,pIC50 [1],IC50 [2] [µM]
NC(CC(=O)NC(CCCNC(=O)C(O)C(N)Cc1ccccc1)C(=O)O)Cc1cc(F)ccc1F (stereo not shown) [drawing 35],6.70,6.2
CC(C)(CCNC(=O)CC(N)Cc1cc(F)ccc1F)CNC(=O)C(O)C(N)Cc1ccccc1 (stereo not shown) [drawing 36],7.00,> 50
CN(CCCNC(=O)C(O)C(N)Cc1ccccc1)C(=O)CC(N)Cc1cc(F)ccc1F (stereo not shown) [drawing 37],7.14,0.7
CCCC(=O)NC(CC(=O)NCC(C)(C)CNC(=O)C(O)C(Cc1ccccc1)NC(=O)CCC)Cc1cc(F)ccc1F (stereo not shown) [drawing 38],< 4.30,> 50
NC(CC(=O)Nc1ccc(NC(=O)C(O)C(N)Cc2ccccc2)cc1)Cc1cc(F)ccc1F (stereo not shown) [drawing 39],,0.02
CN(CCCNC(=O)CC(N)Cc1cc(F)ccc1F)C(=O)C(O)C(N)Cc1ccccc1 (stereo not shown) [drawing 40],6.70,15.4
CCCCCCCC(=O)OC(C(=O)NCC(C)(C)CNC(=O)CC(N)Cc1cc(F)ccc1F)C(N)Cc1ccccc1 (stereo not shown) [drawing 41],6.52,0.2
NC(CC(=O)NCCCCNC(=O)C(O)C(N)Cc1ccccc1)C(=O)N1CCSC1 (stereo not shown) [drawing 42],5.77,> 50
CCCCCCCCCCCCCCCC(=O)OC(C(=O)NCC(C)(C)CNC(=O)CC(N)Cc1cc(F)ccc1F)C(N)Cc1ccccc1 (stereo not shown) [drawing 43],7.22,0.03
CCCCCCCC(=O)OC(C(=O)N(C)CCCNC(=O)CC(N)Cc1cc(F)ccc1F)C(N)Cc1ccccc1 (stereo not shown) [drawing 44],7.70,> 50
NC(CC(=O)NCCCCNC(=O)C(O)C(N)Cc1ccc(C(=O)O)cc1)Cc1cc(F)ccc1F (stereo not shown) [drawing 45],6.33,> 50
CCCCCCCCCCCCCC(=O)OC(C(=O)NCC(C)(C)CNC(=O)CC(N)Cc1cc(F)ccc1F)C(N)Cc1ccccc1 (stereo not shown) [drawing 46],6.00,21
CCCCCCCCCCCC(=O)OC(C(=O)NCC(C)(C)CNC(=O)CC(N)Cc1cc(F)ccc1F)C(N)Cc1ccccc1 (stereo not shown) [drawing 47],6.22,18
CCCCCCCCCC(=O)OC(C(=O)NCC(C)(C)CNC(=O)CC(N)Cc1cc(F)ccc1F)C(N)Cc1ccccc1 (stereo not shown) [drawing 48],6.70,> 50
CC(C)(CNC(=O)CC(N)Cc1cc(F)ccc1F)CNC(=O)C(OC(=O)CCCc1ccccc1)C(N)Cc1ccccc1 (stereo not shown) [drawing 49],6.52,15
CCCCCCCC(=O)OC(C(=O)NCCCCNC(=O)CC(N)Cc1cc(F)ccc1F)C(N)Cc1ccccc1 (stereo not shown) [drawing 50],6.92,> 50
CCCCCCCCCCCCCCCC(=O)OC(C(=O)NCCCCNC(=O)CC(N)Cc1cc(F)ccc1F)C(N)Cc1ccccc1 (stereo not shown) [drawing 53],5.10,
CCCC(=O)OC(C(=O)NCC(C)(C)CNC(=O)CC(N)Cc1cc(F)ccc1F)C(N)Cc1ccccc1 (stereo not shown) [drawing 54],7.10,
CCCCCC(=O)OC(C(=O)NCC(C)(C)CNC(=O)CC(N)Cc1cc(F)ccc1F)C(N)Cc1ccccc1 (stereo not shown) [drawing 55],7.52,1.9
CC(C)(CNC(=O)C(O)C(N)Cc1ccccc1)CNC(=O)C(CC(=O)O)C(N)Cc1cc(F)ccc1F (stereo not shown) [drawing 56],5.43,1.4
NC(CC(=O)NCC1(CNC(=O)C(O)C(N)Cc2ccccc2)CCC1)Cc1cc(F)ccc1F (stereo not shown) [drawing 57],7.00,0.07
CCCCCCCCCCCCCC(=O)NC(CC(=O)NCC(C)(C)CNC(=O)C(O)C(Cc1ccccc1)NC(=O)CCCCCCCCCCCCC)Cc1cc(F)ccc1F (stereo not shown) [drawing 58],5.26,32
CCC(CC)(CNC(=O)CC(N)Cc1cc(F)ccc1F)CNC(=O)C(O)C(N)Cc1ccccc1 (stereo not shown) [drawing 59],7.00,0.3
